Tested on: adult Japanese patients with SBS-IF
Experiment: Safety: treatment-emergent adverse events (TEAEs, TESAEs)
Type: in vivo
Text: Safety analyses included the monitoring of adverse events (AEs), body weight, BMI, vital signs, 12-lead electrocardiogram (ECG), serum biochemistry, hematology, and presence of antibodies to teduglutide. AEs were coded using the Medical Dictionary for Regulatory Activities versions 17.1 (TED-C14-004) and 21.0 (SHP633-306 and SHP633-307). Specifically, AEs were treatment-emergent AEs (TEAEs), defined as any unfavorable and unintended sign (including any abnormal laboratory finding), symptom, or disease that occurred during treatment with teduglutide, whether or not the event was considered to be related to the study drug by the clinical study investigator. AEs were also categorized as mild, moderate, or severe. […] AEs were considered related to treatment with teduglutide, or its administration, based on the investigator's medical judgment.

[1] = > 24 weeks (SHP633-307 and TED-C14-004), 0.05 mg/kg/day

SMILES: CC[C@H](C)[C@H](NC(=O)[C@H](Cc1ccccc1)NC(=O)[C@H](CC(=O)O)NC(=O)[C@H](CCCNC(=N)N)NC(=O)[C@H](C)NC(=O)[C@H](C)NC(=O)[C@H](CC(C)C)NC(=O)[C@H](CC(N)=O)NC(=O)[C@H](CC(=O)O)NC(=O)[C@H](CC(C)C)NC(=O)[C@@H](NC(=O)[C@@H](NC(=O)[C@H](CC(N)=O)NC(=O)[C@H](CCSC)NC(=O)[C@H](CCC(=O)O)NC(=O)[C@H](CC(=O)O)NC(=O)[C@H](CO)NC(=O)[C@H](Cc1ccccc1)NC(=O)[C@H](CO)NC(=O)CNC(=O)[C@H](CC(=O)O)NC(=O)CNC(=O)[C@@H](N)Cc1c[nH]cn1)[C@@H](C)O)[C@@H](C)CC)C(=O)N[C@@H](CC(N)=O)C(=O)N[C@@H](Cc1c[nH]c2ccccc12)C(=O)N[C@@H](CC(C)C)C(=O)N[C@H](C(=O)N[C@@H](CCC(N)=O)C(=O)N[C@H](C(=O)N[C@@H](CCCCN)C(=O)N[C@H](C(=O)N[C@H](C(=O)N[C@@H](CC(=O)O)C(=O)O)[C@@H](C)O)[C@@H](C)CC)[C@@H](C)O)[C@@H](C)CC [teduglutide]
- Abdominal distension: Events [1]: 2 n
- Abdominal distension: Patients [1]: 2 (13.3) n (%)
- Abdominal pain: Events [1]: 1 n
- Abdominal pain: Patients [1]: 1 (6.7) n (%)
- Anal abscess: Events [1]: 3 n
- Anal abscess: Patients [1]: 3 (20.0) n (%)
- Anemia: Events [1]: 0 n
- Anemia: Patients [1]: 0 n (%)
- Any TEAE: Events [1]: 199 n
- Any TEAE: Patients [1]: 11 (73.3) n (%)
- Arthralgia: Events [1]: 5 n
- Arthralgia: Patients [1]: 5 (33.3) n (%)
- Back pain: Events [1]: 1 n
- Back pain: Patients [1]: 1 (6.7) n (%)
- Blood and lymphatic system disorders: Events [1]: 0 n
- Blood and lymphatic system disorders: Patients [1]: 0 n (%)
- Catheter site infection: Events [1]: 1 n
- Catheter site infection: Patients [1]: 1 (6.7) n (%)
- Catheter site pain: Events [1]: 4 n
- Catheter site pain: Patients [1]: 2 (13.3) n (%)
- Dehydration: Events [1]: 2 n
- Dehydration: Patients [1]: 2 (13.3) n (%)
- Dermatitis contact: Events [1]: 4 n
- Dermatitis contact: Patients [1]: 4 (26.7) n (%)
- Device occlusion (central venous catheter for PS): Events [1]: 3 n
- Device occlusion (central venous catheter for PS): Patients [1]: 2 (13.3) n (%)
- Device-related infection (central venous catheter for PS): Events [1]: 24 n
- Device-related infection (central venous catheter for PS): Patients [1]: 7 (46.7) n (%)
- Diarrhea: Events [1]: 4 n
- Diarrhea: Patients [1]: 3 (20.0) n (%)
- Dry skin: Events [1]: 1 n
- Dry skin: Patients [1]: 1 (6.7) n (%)
- Enteritis: Events [1]: 1 n
- Enteritis: Patients [1]: 1 (6.7) n (%)
- Enterocolitis: Events [1]: 2 n
- Enterocolitis: Patients [1]: 2 (13.3) n (%)
- Eye disorder: Events [1]: 5 n
- Eye disorder: Patients [1]: 1 (6.7) n (%)
- Gastrointestinal disorders: Events [1]: 33 n
- Gastrointestinal disorders: Patients [1]: 8 (53.3) n (%)
- General disorders and administration site conditions: Events [1]: 16 n
- General disorders and administration site conditions: Patients [1]: 5 (33.3) n (%)
- Headache: Events [1]: 11 n
- Headache: Patients [1]: 5 (33.3) n (%)
- Hematuria: Events [1]: 2 n
- Hematuria: Patients [1]: 2 (13.3) n (%)
- Hemorrhage subcutaneous: Events [1]: 2 n
- Hemorrhage subcutaneous: Patients [1]: 2 (13.3) n (%)
- Hepatobiliary disorders: Events [1]: 2 n
- Hepatobiliary disorders: Patients [1]: 2 (13.3) n (%)
- Hypersensitivity: Events [1]: 2 n
- Hypersensitivity: Patients [1]: 2 (13.3) n (%)
- Hypozincemia: Events [1]: 1 n
- Hypozincemia: Patients [1]: 1 (6.7) n (%)
- Immune system disorders: Events [1]: 2 n
- Immune system disorders: Patients [1]: 2 (13.3) n (%)
- Infections and infestations: Events [1]: 62 n
- Infections and infestations: Patients [1]: 10 (66.7) n (%)
- Influenza: Events [1]: 18 n
- Influenza: Patients [1]: 5 (33.3) n (%)
- Injection site reaction: Events [1]: 0 n
- Injection site reaction: Patients [1]: 0 n (%)
- Injury, poisoning, and procedural complications: Events [1]: 1 n
- Injury, poisoning, and procedural complications: Patients [1]: 1 (6.7) n (%)
- Insomnia: Events [1]: 2 n
- Insomnia: Patients [1]: 2 (13.3) n (%)
- Investigations: Events [1]: 5 n
- Investigations: Patients [1]: 2 (13.3) n (%)
- Metabolism and nutrition disorders: Events [1]: 7 n
- Metabolism and nutrition disorders: Patients [1]: 5 (33.3) n (%)
- Musculoskeletal and connective tissue disorders: Events [1]: 10 n
- Musculoskeletal and connective tissue disorders: Patients [1]: 6 (40.0) n (%)
- Nasopharyngitis: Events [1]: 18 n
- Nasopharyngitis: Patients [1]: 5 (33.3) n (%)
- Nausea: Events [1]: 7 n
- Nausea: Patients [1]: 3 (20.0) n (%)
- Nervous system disorders: Events [1]: 19 n
- Nervous system disorders: Patients [1]: 7 (46.7) n (%)
- Oropharyngeal pain: Events [1]: 3 n
- Oropharyngeal pain: Patients [1]: 3 (20.0) n (%)
- Pruritus: Events [1]: 1 n
- Pruritus: Patients [1]: 1 (6.7) n (%)
- Psychiatric disorders: Events [1]: 4 n
- Psychiatric disorders: Patients [1]: 3 (20.0) n (%)
- Pyrexia: Events [1]: 5 n
- Pyrexia: Patients [1]: 4 (26.7) n (%)
- Renal and urinary disorders: Events [1]: 4 n
- Renal and urinary disorders: Patients [1]: 3 (20.0) n (%)
- Respiratory, thoracic, and mediastinal disorders: Events [1]: 8 n
- Respiratory, thoracic, and mediastinal disorders: Patients [1]: 3 (20.0) n (%)
- Skin and subcutaneous tissue disorders: Events [1]: 13 n
- Skin and subcutaneous tissue disorders: Patients [1]: 7 (46.7) n (%)
- Somnolence: Events [1]: 3 n
- Somnolence: Patients [1]: 3 (20.0) n (%)
- Stomatitis: Events [1]: 3 n
- Stomatitis: Patients [1]: 3 (20.0) n (%)
- Upper respiratory tract inflammation: Events [1]: 1 n
- Upper respiratory tract inflammation: Patients [1]: 1 (6.7) n (%)
- Vascular disorders: Events [1]: 4 n
- Vascular disorders: Patients [1]: 3 (20.0) n (%)
- Vascular pain: Events [1]: 3 n
- Vascular pain: Patients [1]: 2 (13.3) n (%)
- Vomiting: Events [1]: 1 n
- Vomiting: Patients [1]: 1 (6.7) n (%)
- TESAEs considered to be related to teduglutide (SHP633-306 or SHP633-307): No TESAEs
- Deaths during the study (TED-C14-004, one patient, acute hepatic and renal failure 52 days after teduglutide discontinuation): only death
- Abdominal distension: Events (Total, 0.05 mg/kg/day): 6 n
- Abdominal distension: Patients (Total, 0.05 mg/kg/day): 6 (33.3) n (%)
- Abdominal pain: Events (Total, 0.05 mg/kg/day): 6 n
- Abdominal pain: Patients (Total, 0.05 mg/kg/day): 5 (27.8) n (%)
- Anal abscess: Events (Total, 0.05 mg/kg/day): 3 n
- Anal abscess: Patients (Total, 0.05 mg/kg/day): 3 (16.7) n (%)
- Anemia: Events (Total, 0.05 mg/kg/day): 2 n
- Anemia: Patients (Total, 0.05 mg/kg/day): 2 (11.1) n (%)
- Any TEAE: Events (Total, 0.05 mg/kg/day): 320 n
- Any TEAE: Patients (Total, 0.05 mg/kg/day): 18 (100.0) n (%)
- Arthralgia: Events (Total, 0.05 mg/kg/day): 5 n
- Arthralgia: Patients (Total, 0.05 mg/kg/day): 5 (27.8) n (%)
- Back pain: Events (Total, 0.05 mg/kg/day): 2 n
- Back pain: Patients (Total, 0.05 mg/kg/day): 2 (11.1) n (%)
- Blood and lymphatic system disorders: Events (Total, 0.05 mg/kg/day): 4 n
- Blood and lymphatic system disorders: Patients (Total, 0.05 mg/kg/day): 3 (16.7) n (%)
- Catheter site infection: Events (Total, 0.05 mg/kg/day): 2 n
- Catheter site infection: Patients (Total, 0.05 mg/kg/day): 2 (11.1) n (%)
- Catheter site pain: Events (Total, 0.05 mg/kg/day): 5 n
- Catheter site pain: Patients (Total, 0.05 mg/kg/day): 2 (11.1) n (%)
- Dehydration: Events (Total, 0.05 mg/kg/day): 4 n
- Dehydration: Patients (Total, 0.05 mg/kg/day): 2 (11.1) n (%)
- Dermatitis contact: Events (Total, 0.05 mg/kg/day): 4 n
- Dermatitis contact: Patients (Total, 0.05 mg/kg/day): 4 (22.2) n (%)
- Device occlusion (central venous catheter for PS): Events (Total, 0.05 mg/kg/day): 6 n
- Device occlusion (central venous catheter for PS): Patients (Total, 0.05 mg/kg/day): 3 (16.7) n (%)
- Device-related infection (central venous catheter for PS): Events (Total, 0.05 mg/kg/day): 33 n
- Device-related infection (central venous catheter for PS): Patients (Total, 0.05 mg/kg/day): 10 (55.6) n (%)
- Diarrhea: Events (Total, 0.05 mg/kg/day): 5 n
- Diarrhea: Patients (Total, 0.05 mg/kg/day): 4 (22.2) n (%)
- Dry skin: Events (Total, 0.05 mg/kg/day): 2 n
- Dry skin: Patients (Total, 0.05 mg/kg/day): 2 (11.1) n (%)
- Enteritis: Events (Total, 0.05 mg/kg/day): 2 n
- Enteritis: Patients (Total, 0.05 mg/kg/day): 2 (11.1) n (%)
- Enterocolitis: Events (Total, 0.05 mg/kg/day): 4 n
- Enterocolitis: Patients (Total, 0.05 mg/kg/day): 3 (16.7) n (%)
- Eye disorder: Events (Total, 0.05 mg/kg/day): 7 n
- Eye disorder: Patients (Total, 0.05 mg/kg/day): 3 (16.7) n (%)
- Gastrointestinal disorders: Events (Total, 0.05 mg/kg/day): 60 n
- Gastrointestinal disorders: Patients (Total, 0.05 mg/kg/day): 15 (83.3) n (%)
- General disorders and administration site conditions: Events (Total, 0.05 mg/kg/day): 37 n
- General disorders and administration site conditions: Patients (Total, 0.05 mg/kg/day): 10 (55.6) n (%)
- Headache: Events (Total, 0.05 mg/kg/day): 14 n
- Headache: Patients (Total, 0.05 mg/kg/day): 7 (38.9) n (%)
- Hematuria: Events (Total, 0.05 mg/kg/day): 3 n
- Hematuria: Patients (Total, 0.05 mg/kg/day): 3 (16.7) n (%)
- Hemorrhage subcutaneous: Events (Total, 0.05 mg/kg/day): 3 n
- Hemorrhage subcutaneous: Patients (Total, 0.05 mg/kg/day): 2 (11.1) n (%)
- Hepatobiliary disorders: Events (Total, 0.05 mg/kg/day): 5 n
- Hepatobiliary disorders: Patients (Total, 0.05 mg/kg/day): 4 (22.2) n (%)
- Hypersensitivity: Events (Total, 0.05 mg/kg/day): 2 n
- Hypersensitivity: Patients (Total, 0.05 mg/kg/day): 2 (11.1) n (%)
- Hypozincemia: Events (Total, 0.05 mg/kg/day): 2 n
- Hypozincemia: Patients (Total, 0.05 mg/kg/day): 2 (11.1) n (%)
